Test results as given in patent publication US20220251116A1, “ALKYLBORONIC ACIDS AS ARGINASE INHIBITORS” (Guangdong Newopp Biopharmaceuticals Co., Ltd., priority 2019, published 2022).
Structures can show the parent of a compound that is named as a salt.

target: T1, recombinant human arginase 1 (Homo sapiens, UniProt P05089); assay: Arginase inhibitory activity test, enzymatic assay based on urea measurement (Arg 1);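 also: enzyme incubated with L-arginine substrate and compound at 37 °C for 120 min, urea product detected colorimetrically by absorbance at 450 nm, background from wells lacking enzyme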
T1 sequence (P05089 1-322): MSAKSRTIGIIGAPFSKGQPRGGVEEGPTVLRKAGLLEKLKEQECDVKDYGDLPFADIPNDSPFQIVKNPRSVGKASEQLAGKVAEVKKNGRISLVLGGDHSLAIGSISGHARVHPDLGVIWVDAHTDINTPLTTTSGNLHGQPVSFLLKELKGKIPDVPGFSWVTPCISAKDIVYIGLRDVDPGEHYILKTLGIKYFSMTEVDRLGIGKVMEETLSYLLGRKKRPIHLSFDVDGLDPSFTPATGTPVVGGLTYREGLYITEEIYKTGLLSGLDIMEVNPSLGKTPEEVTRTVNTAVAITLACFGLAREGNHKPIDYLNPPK
Protocol: An enzymatic assay with recombinant human arginases 1 or 2 was used to measure inhibitory activity of the compounds. The assay is based on urea measurement, which is a product of L-arginine enzymatic degradation.
Briefly, arginase and the substrate solution containing L-arginine were incubated in the absence or presence of varying concentrations of compounds at 37° C. for 120 min. For the background correction, only the substrate solution was added without arginase. The urea detection reagent from QuantiChrome™ Urea assay kit (BioAssay Systems, CA) was added to develop the color product. After 60 min at room temperature, the absorbance was measured at 450 nm with CLARIOstar (BMG LABTECH). Urea was used as the standard.

**Q.** Which IC50 does the source give for `N[C@H]1CCCCC1NS(=O)(=O)N1C[C@H](CCCB(O)O)[C@](N)(C(=O)O)C1` (mixture of isomers) [Example 22, (rac)-trans-3-amino-1-(N-(trans-2-aminocyclohexyl)sulfamoyl)-4-(3-boronopropyl)pyrrolidine-3-carboxylic acid (diastereomers), 2,2,2-trifluoroacetic acid salt (1:2)] here?
**A.** The IC50 was 100 to 1000 nM.

**Q.** With `N[C@@]1(C(=O)O)CN(S(=O)(=O)N(CC2CC2)C2CNC2)C[C@@H]1CCCB(O)O` [Example 63, (3R,4S)-3-amino-1-(N-(azetidin-3-yl)-N-(cyclopropylmethyl)sulfamoyl)-4-(3-boronopropyl)pyrrolidine-3-carboxylic acid, 2,2,2-trifluoroacetic acid salt (1:2)] as the compound, how does the IC50 read?
**A.** Its IC50 is less than 100 nM.

**Q.** With `CNCCN(C)S(=O)(=O)N1C[C@H](CCCB(O)O)[C@](N)(C(=O)O)C1` (racemic) [Example 47, (racemic)-trans-3-amino-4-(3-boronopropyl)-1-(N-methyl-N-(2-(methylamino)ethyl)sulfamoyl)pyrrolidine-3-carboxylic acid, 2,2,2-trifluoroacetic acid salt (1:2)] as the compound, how does the IC50 read?
**A.** The IC50 was less than 100 nM.

**Q.** For `CC(C)(N)C(C)(C)NS(=O)(=O)N1C[C@H](CCCB(O)O)[C@](N)(C(=O)O)C1` (racemic) [Example 50, (racemic)-trans-3-amino-1-(N-(3-amino-2,3-dimethylbutan-2-yl)sulfamoyl)-4-(3-boronopropyl)pyrrolidine-3-carboxylic acid, 2,2,2-trifluoroacetic acid salt (1:2)], which IC50 is on record?
**A.** The IC50 was 100 to 1000 nM.

**Q.** For `NC1(CNS(=O)(=O)N2C[C@H](CCCB(O)O)[C@](N)(C(=O)O)C2)CC1` (racemic) [Example 19, (rac)-(trans)3-amino-1-(N-((1-aminocyclopropyl)methyl)sulfamoyl)-4-(3-boronopropyl)pyrrolidine-3-carboxylic acid, 2,2,2-trifluoroacetic acid salt (1:2)], which IC50 is on record?
**A.** Its IC50 is 100 to 1000 nM.

**Q.** With `CC(C)N(C1CNC1)S(=O)(=O)N1C[C@H](CCCB(O)O)[C@](N)(C(=O)O)C1` [Example 57, (3R,4S)-3-amino-1-(N-(azetidin-3-yl)-N-isopropylsulfamoyl)-4-(3-boronopropyl)pyrrolidine-3-carboxylic acid, 2,2,2-trifluoroacetic acid salt (1:2)] as the compound, how does the IC50 read?
**A.** The IC50 was less than 100 nM.

**Q.** `CC(C)C(NS(=O)(=O)N1CC(CCCB(O)O)C(N)(C(=O)O)C1)C(=O)O` (racemic) [Example 11, (rac)trans-3-amino-4-(3-boronopropyl)-1-(N-((S)-1-carboxy-2-methylpropyl)sulfamoyl)pyrrolidine-3-carboxylic acid (diastereomer), (1:1) 2,2,2-trifluoroacetic acid salt] was tested. Which IC50 did it give?
**A.** The IC50 was 1000 to 10000 nM.

**Q.** `CCCCN(C1CNC1)S(=O)(=O)N1C[C@H](CCCB(O)O)[C@](N)(C(=O)O)C1` [Example 61, (3R,4S)-3-amino-1-(N-(azetidin-3-yl)-N-butylsulfamoyl)-4-(3-boronopropyl)pyrrolidine-3-carboxylic acid, 2,2,2-trifluoroacetic acid salt (1:2)] was tested. Which IC50 did it give?
**A.** The IC50 was less than 100 nM.

**Q.** For `N[C@@]1(C(=O)O)CN(S(=O)(=O)N(CC2CC2)[C@@H]2CCCNC2)C[C@@H]1CCCB(O)O` [Example 73, (3R,4S)-3-amino-4-(3-boronopropyl)-1-(N-(cyclopropylmethyl)-N-((R)-piperidin-3-yl)sulfamoyl)pyrrolidine-3-carboxylic acid, 2,2,2-trifluoroacetic acid salt (1:2)], which IC50 is on record?
**A.** Its IC50 is less than 100 nM.

**Q.** With `CN(C1CNC1)S(=O)(=O)N1C[C@H](CCCB(O)O)[C@](N)(C(=O)O)C1` (racemic) [Example 42, (rac)-trans-3-amino-1-(N-(azetidin-3-yl)-N-methylsulfamoyl)-4-(3-boronopropyl)pyrrolidine-3-carboxylic acid, 2,2,2-trifluoroacetic acid salt (1:2)] as the compound, how does the IC50 read?
**A.** Its IC50 is less than 100 nM.

**Q.** With `N=C(NC(=O)CN)N1C[C@H](CCCB(O)O)[C@](N)(C(=O)O)C1` (racemic) [Example 38, rac-(trans)-3-amino-4-(3-boronopropyl)-1-(N-glycylcarbamimidoyl)pyrrolidine-3-carboxylic acid, 2,2,2-trifluoroacetic acid salt (1:2)] as the compound, how does the IC50 read?
**A.** Its IC50 is 100 to 1000 nM.

**Q.** How did the IC50 turn out when `N=C(N)NCCNS(=O)(=O)N1C[C@H](CCCB(O)O)[C@](N)(C(=O)O)C1` (racemic) [Example 54, (racemic)-trans-3-amino-4-(3-boronopropyl)-1-(N-(2-guanidinoethyl)sulfamoyl)pyrrolidine-3-carboxylic acid, 2,2,2-trifluoroacetic acid salt (1:2)] was run?
**A.** Its IC50 is 100 to 1000 nM.

**Q.** With `CCN(CC1(N)CC1)S(=O)(=O)N1C[C@H](CCCB(O)O)[C@](N)(C(=O)O)C1` [Example 65, (3R,4S)-3-amino-1-(N-((1-aminocyclopropyl)methyl)-N-ethylsulfamoyl)-4-(3-boronopropyl)pyrrolidine-3-carboxylic acid, 2,2,2-trifluoroacetic acid salt (1:2)] as the compound, how does the IC50 read?
**A.** Its IC50 is 1000 to 10000 nM.

**Q.** With `C[C@@H](N)C(=O)NS(=O)(=O)N1C[C@H](CCCB(O)O)[C@](N)(C(=O)O)C1` (racemic) [Example 35, (rac)-trans-1-(N-alanylsulfamoyl)-3-amino-4-(3-boronopropyl)pyrrolidine-3-carboxylic acid, 2,2,2-trifluoroacetic acid salt (1:2)] as the compound, how does the IC50 read?
**A.** Its IC50 is 100 to 1000 nM.

**Q.** With `N[C@@]1(C(=O)O)CN(S(=O)(=O)N(CC2CC2)C2CCNCC2)C[C@@H]1CCCB(O)O` [Example 74, (3R,4S)-3-amino-4-(3-boronopropyl)-1-(N-(cyclopropylmethyl)-N-(piperidin-4-yl)sulfamoyl)pyrrolidine-3-carboxylic acid, 2,2,2-trifluoroacetic acid salt (1:2)] as the compound, how does the IC50 read?
**A.** The IC50 was less than 100 nM.

**Q.** For `CC(C)(O)CNS(=O)(=O)N1C[C@H](CCCB(O)O)[C@](N)(C(=O)O)C1` (racemic) [Example 9, (rac)trans-3-amino-4-(3-boronopropyl)-1-(N-(2-hydroxy-2-methylpropyl)sulfamoyl)pyrrolidine-3-carboxylic acid, (1:1) 2,2,2-trifluoroacetic acid salt], which IC50 is on record?
**A.** Its IC50 is 100 to 1000 nM.

**Q.** Which IC50 does the source give for `NCCNc1c(N2C[C@H](CCCB(O)O)[C@](N)(C(=O)O)C2)c(=O)c1=O` [Example 28, (3R,4S)-3-amino-1-(2-((2-aminoethyl)amino)-3,4-dioxocyclobut-1-en-1-yl)-4-(3-boronopropyl)pyrrolidine-3-carboxylic acid, 2,2,2-trifluoroacetic acid salt (1:2)] here?
**A.** The IC50 was less than 100 nM.

**Q.** Which IC50 does the source give for `NC1COCC1NS(=O)(=O)N1CC(CCCB(O)O)C(N)(C(=O)O)C1` (racemic) [Example 41, (rac)-trans-3-amino-1-(N-((trans)-4-aminotetrahydrofuran-3-yl)sulfamoyl)-4-(3-boronopropyl)pyrrolidine-3-carboxylic acid, 2,2,2-trifluoroacetic acid salt (1:2)] here?
**A.** The IC50 was 100 to 1000 nM.

**Q.** With `N[C@@H]1CCCCC1NS(=O)(=O)N1C[C@H](CCCB(O)O)[C@](N)(C(=O)O)C1` (mixture of isomers) [Example 20, (rac)trans-3-amino-1-(N-((rac)cis-2-aminocyclohexyl)sulfamoyl)-4-(3-boronopropyl)pyrrolidine-3-carboxylic acid (diastereomers), 2,2,2-trifluoroacetic acid salt (1:2)] as the compound, how does the IC50 read?
**A.** The IC50 was greater than 10000 nM.

**Q.** Which IC50 does the source give for `CC(NS(=O)(=O)N1C[C@H](CCCB(O)O)[C@](N)(C(=O)O)C1)C1(N)CC1` (stereo partly drawn) [Example 58, (3R,4S)-3-amino-1-(N-(1-(1-aminocyclopropyl)ethyl)sulfamoyl)-4-(3-boronopropyl)pyrrolidine-3-carboxylic acid, 2,2,2-trifluoroacetic acid salt (1:2)] here?
**A.** The IC50 was 100 to 1000 nM.
